Results: publication PMC11359531, “Establishment of Dissolution Test Method for Multi-Components in Traditional Chinese Medicine Preparations Based on In Vitro–In Vivo Correlation” (Pharmaceuticals, 2024)

Tests used:
[1] = Dissolution test of Q-markers in YZTs, paddle method, and fitting of dissolution profiles; type: physicochemical; conditions: for Best-fitted dissolution model, Functions: YZTs, 75 rpm
Method: The dissolution of five Q-markers in YZTs was evaluated using the paddle method in accordance with the Chinese Pharmacopoeia. […] The dissolution tests were conducted at a temperature of 37 ± 0.5 °C and a paddle speed of 75 rpm. Add 6 tablets to each dissolving cup, accompanied by 900 mL of dissolving solution, in 6 parallel aliquots, and samples of 3 mL were collected at 15, 30, 45, 60, 90, 120, 180, 240, and 360 min, respectively. Taking into account the gastric emptying time, the end time of dissolution measurement was 180 min when taking 0.1 M of HCl as dissolution medium. The dissolution medium was replenished after each sampling. The samples were filtered through 0.22 μm membrane and analyzed using the HPLC method described in Section 3.2. The chromatographic results were processed to calculate the concentration of each component at different time points, and the dissolution results were calculated using Equation (3) as follows:(3) D=(CnV1+V2∑i=1n−1Cn−1)×100%/M
Cn is the drug concentration at time point n; V1 is the volume of dissolution medium in the dissolution cup; V2 is the volume of the sample removed at each time point; M is the total drug content.
The Phoenix WinNonlin IVIVC Toolkit provides Hill, Weibull, and Makoid Banakar functions to fit the average dissolution of each component in each dissolved medium. The best-fitting model was selected according to the highest correlation coefficient (R) and the smallest Akaike information criterion (AIC) value in the fitting results.
Hill:(4) Fdiss,vitro=Finf×t^b/MDT^b+t^b
Weibull:(5) Fdiss,vitro=Finf×(1−exp[−t−tlag/MDT]^b)
Makoid Banakar:(6) Fdiss,vitro=Fmax×(t/Tmax)^b×exp[b×(1−t/Tmax)] for t≤T_max (7) Fdiss,vitro=Fmax for t>Tmax where Fdiss,vitro is the fitting fraction dissolved at time t, Finf is the fraction dissolved at time infinity (fixed as 1), MDT is the average dissolution time (hours), Fmax is the maximum in vitro dissolution value, tlag is the lag time, Tmax is the time corresponding to the maximum in vitro dissolution value, and b is the shape parameters.

[2] = Pharmacokinetic study of the Q-markers in beagle dogs; conditions: dog
Method: An ACQUITY UPLC system from Waters was used for chromatography separation, equipped with a Waters Cortecs C18 column (1.7 μm, 2.1 mm × 50 mm) operated at a flow rate of 0.30 mL/min. The column temperature and auto-sampler temperature were set as 45 °C and 4 °C, respectively. The mobile phases were 10 mM ammonium acetate solution (pH 5.0 by acetic acid) (A) and acetonitrile (B) and the gradient elution used was as follows: 30–39% B from 0–3.3 min, 39–95% B from 3.3–5.4 min, 95% B from 5.4–7.4 min, 95–30% B from 7.4–13.5 min, and 30% B from 13.5–16.0 min. The injection volume was 3 μL. The AB SCIEX Qtrap™ 6500 LC-MS/MS system with electron spray ionization (ESI) source in multiple reaction monitoring (MRM) mode was used for MS analysis. The detection was performed under the following conditions: source temperature (at set point) at 550.0 °C, positive ion mode, GS1 at 40 psi, GS2 at 40 psi, CUR at 45 psi, CXP at 15 V, DP at 100 V, and EP at 10 V. Quantitative analysis of analytes in MRM mode was used to determine the transition of precursor ions to specific product ions (m/z): tetrahydropalmatine, m/z […] [M + H]+ → m/z 229.0 (collision energy, CE: 17 V), corydaline, m/z […] (CE: 17 V), protopin, m/z […] [M + H]+ → m/z 227.1 (CE: 23 V), allocryptopine, m/z […] [M + H]+ → m/z 373.2 (CE: 17 V), and byakangelicin, m/z 389.2 [M + H]+ → m/z 363.1 (CE: 17 V). The data were processed using MultiQuant™ 2.1 software purchased from SCIEX.
The standard solutions of tetrahydropalmatine, corydaline, protopin, α-allocryptopine, and byakangelicin were prepared by dissolving them in acetonitrile to obtain a mixed standard stock solution, which was further diluted with acetonitrile to prepare a series of different concentration gradient mixed standard solutions. An internal standard solution of 25 ng/mL was prepared from betamethasone solution (500 μg/mL) diluted with acetonitrile. Blank dog blood was collected through intravenous blood sampling, and plasma was obtained by centrifugation. To prepare the standard plasma sample, 25 μL of the mixed standard solution was added to 100 μL of blank plasma, and 400 μL of acetonitrile was added and vortexed for protein precipitation. The supernatant was acquired by centrifugation and blown dry with nitrogen. Then, 100 μL of acetonitrile was added to the dried supernatant, and the resulting solution was mixed to gain the standard plasma sample. Different mixed standard solution including a serial of concentrations of tetrahydropalmatine: 0.625–25 ng/mL, corydaline: 0.625–25 ng/mL, protopin: 0.1–4 ng/mL, α-allocryptopine: 0.1–4 ng/mL, byakangelicin: 18.75–750 ng/mL were applied to prepare standard plasma sample and quality control (QC) samples of plasma as follows: 1.25, 5, and 20 ng/mL for tetrahydropalmatine and corydaline, 0.2, 0.8, and 3.2 ng/mL for protopin and α-allocryptopine, and 37.5, 150, and 600 ng/mL for byakangelicin.
For pharmacokinetic study, six beagle dogs were used and housed in a professional animal breeding room with a relative humidity of 55–60% and a temperature of 25 °C for one week. The experimental operation was carried out in accordance with ethical requirements for animal experiments and approved by the Institutional Animal Care and Use Committee of the School of Pharmacy, Fudan University. The dogs had free access to drinking water and were fasted for 24 h before the experiment. The dogs were randomly divided into two groups, one group receiving an oral dose of 12 tablets with brand A (tetrahydropalmatine 2.5 mg, corydaline 0.963 mg, protopin 1.896 mg, α-allocryptopine 0.917 mg, and byakangelicin 2.783 mg), while the other group were given an intravenous dose of 2 mL of normal saline containing tetrahydropalmatine 19.75 μg, corydaline 4.54 μg, protopin 168.062 μg, α-allocryptopine 297.16 μg, and byakangelicin 78.68 μg. Blood samples of 2 mL were taken at 15, 30, 45, 60, 90, 120, 150, 180, 240, 360, 480, 720, and 1440 min after dosing.

[3] = Unit impulse response (UIR) fitting of pharmacokinetic data; conditions: best-fitted UIR, Akaike model
Description: The Phoenix WinNonlin IVIVC tool was utilized to evaluate the relationship between in vivo drug dissolution rate and blood drug concentration, which utilizes the Unit Impulse Response (UIR) function for this purpose. By using intravenous administration as the input for the unit impulse response, the influence of drug absorption can be eliminated. The obtained UIR function will be utilized for the deconvolution of pharmacokinetic data to obtain the curve of cumulative drug absorption over time [50]. (8) Y(t)=A×exp[Alpha×(t×Ka−tlag)] in which Y(t) is unit impulse response, A is the coefficient value, Alpha is the exponential value, Ka is the absorption rate constant, tlag is the lag time.

In the case of COc1cc2c(cc1OC)[C@@H]1Cc3ccc(OC)c(OC)c3CN1CC2 [Tetrahydropalmatine, tetrahydropalmatine], the “Best-fitted dissolution model, Functions” value ([1]; FaSSIF-V2) is reported as “y(t) = 0.38 × (1 − exp[−(t/3.48)^1.91])”, the “Best-fitted dissolution model, Functions” value ([1]; Phosphate buffer) is reported as “y(t) = 0.30 × (1 − exp[−(t/2.29)^2.34])” and the AUC(0-inf) ([2]; beagle, plasma, iv) is reported as 10.9 ng·h/mL. It also gave an AUC(0-t) ([2]; beagle, plasma, iv) of 9.87 ng·h/mL, a Cmax ([2]; beagle, plasma, iv) of 11.4 ng/mL and a Tmax ([2]; beagle, plasma, iv) of 0.0833 h. It also gave a half-life ([2]; beagle, plasma, iv) of 6.66 h, an AUC ([2]; beagle, plasma, po) of 136 ng·h/mL and an AUC(0-inf) ([2]; beagle, plasma, po) of 137 ng·h/mL. For the same compound, the AUC(0-t) ([2]; beagle, plasma, po) was 136 ng·h/mL, the Cmax ([2]; beagle, plasma, po) was 45.7 ng/mL and the Tmax ([2]; beagle, plasma, po) was 1.5 h. It also gave a bioavailability ([2]; beagle, plasma, po) of 10.8% and a half-life ([2]; beagle, plasma, po) of 3.9 h.
In the case of COc1cc2c(cc1OC)[C@H]1[C@@H](C)c3ccc(OC)c(OC)c3CN1CC2 [Corydaline, corydaline], the “Best-fitted dissolution model, Functions” value ([1]; 0.1 M HCl) is reported as “y(t) = 0.79 × (1 − exp[−(t/1.06)^2.00])”, the “Best-fitted dissolution model, Functions” value ([1]; Acetate buffer) is reported as “y(t) = 0.71 × (1 − exp[−(t/1.23)^2.04])” and the “Best-fitted dissolution model, Functions” value ([1]; FaSSIF-V2) is reported as “y(t) = 0.15 × (1 − exp[−(t/3.14)^1.77])”. The “Best-fitted dissolution model, Functions” value ([1]; Phosphate buffer) was “y(t) = 0.25 × (1 − exp[−(t/1.94)^2.82])”, the AUC(0-inf) ([2]; beagle, plasma, iv) was 7.18 ng·h/mL and the AUC(0-t) ([2]; beagle, plasma, iv) was 6.5 ng·h/mL. For the same compound, the Cmax ([2]; beagle, plasma, iv) was 5.01 ng/mL, the Tmax ([2]; beagle, plasma, iv) was 0.0833 h and the half-life ([2]; beagle, plasma, iv) was 3.96 h. For the same compound, the AUC ([2]; beagle, plasma, po) was 74.2 ng·h/mL, the AUC(0-inf) ([2]; beagle, plasma, po) was 81.1 ng·h/mL and the AUC(0-t) ([2]; beagle, plasma, po) was 74.2 ng·h/mL. For the same compound, the Cmax ([2]; beagle, plasma, po) was 24.8 ng/mL, the Tmax ([2]; beagle, plasma, po) was 1.5 h and the bioavailability ([2]; beagle, plasma, po) was 5.38%. For the same compound, the half-life ([2]; beagle, plasma, po) was 8.74 h, the “UIR parameter A1, Estimate” value [3] was 0.05 ng/mL and the “UIR parameter Ka, Estimate” value [3] was 1.46 h⁻¹. For the same compound, the “UIR parameter Tlag, Estimate” value [3] was 0.44 h and the “UIR parameter alpha1, Estimate” value [3] was 1.42 h⁻¹.
In the case of protopine, the “Best-fitted dissolution model, Functions” value ([1]; 0.1 M HCl) is reported as “y(t) = 0.70 × (1 − exp[−(t/1.10)^2.06])”, the “Best-fitted dissolution model, Functions” value ([1]; FaSSGF) is reported as “y(t) = 0.82 × (1 − exp[−t^1.01])” and the “Best-fitted dissolution model, Functions” value ([1]; Phosphate buffer) is reported as “y(t) = 0.62 × (1 − exp[−(t/1.50)^1.63])”. The “Bioavailability (absolute oral)” value ([2]; in vivo) was 1.35%, the Cl/F ([2]; in vivo, iv) was 0.03 L/h and the Cmax ([2]; in vivo, iv) was 12.44 ng/mL. For the same compound, the T1/2 ([2]; in vivo, iv) was 4.5773 h, the Tmax ([2]; in vivo, iv) was 0.083 h and the Vz/F ([2]; in vivo, iv) was 0.22 L. For the same compound, the Cl/F ([2]; in vivo, po) was 0.21 L/h, the Cmax ([2]; in vivo, po) was 1.63 ng/mL and the “Observed AUC” value ([2]; in vivo, po) was 205.15. The Observed Cmax ([2]; in vivo, po) was 1.63 ng/mL, the T1/2 ([2]; in vivo, po) was 5.321 h and the Tmax ([2]; in vivo, po) was 1.5 h. The Vz/F ([2]; in vivo, po) was 1.64 L.
In the case of COc1ccc2c(c1OC)CN(C)CCc1cc3c(cc1C(=O)C2)OCO3 [α-allocryptopine], the “Best-fitted dissolution model, Functions” value ([1]; Acetate buffer) is reported as “y(t) = 0.86 × (1 − exp[−(t/1.26)^1.97])”, the “Best-fitted dissolution model, Functions” value ([1]; Phosphate buffer) is reported as “y(t) = 0.60 × (1 − exp[−(t/1.29)^1.78])” and the “released within 6 h” value ([1]; from YZTs, phosphate buffer and artificial intestinal fluid, paddle 75 rpm) is reported as “less than 60%”. It also gave an AUC(0-inf) ([2]; beagle, in vivo, iv) of 39.6 ng·h/mL, an AUC(0-t) ([2]; beagle, in vivo, iv) of 35.9 ng·h/mL and a Cmax ([2]; beagle, in vivo, iv) of 32.8 ng/mL. For the same compound, the Tmax ([2]; beagle, in vivo, iv) was 0.0833 h, the half-life ([2]; beagle, in vivo, iv) was 5.52 h and the AUC ([2]; beagle, in vivo, po) was 8.31 ng·h/mL. The AUC(0-inf) ([2]; beagle, in vivo, po) was 9.12 ng·h/mL, the AUC(0-t) ([2]; beagle, in vivo, po) was 8.31 ng·h/mL and the Cmax ([2]; beagle, in vivo, po) was 3.51 ng/mL. It also gave a Tmax ([2]; beagle, in vivo, po) of 1 h, a bioavailability ([2]; beagle, in vivo, po) of 7.5% and a half-life ([2]; beagle, in vivo, po) of 8.39 h. The “UIR parameter A1, Estimate” value [3] was 0 ng/mL, the “UIR parameter Ka, Estimate” value [3] was 5.65 h⁻¹ and the “UIR parameter Tlag, Estimate” value [3] was 0.67 h. The “UIR parameter alpha1, Estimate” value [3] was 1.13 h⁻¹.
For COc1c2ccoc2c(OC[C@@H](O)C(C)(C)O)c2oc(=O)ccc12 [Byakangelicin, byakangelicin], the released ([1]; from YZTs, all other dissolution media than simulated gastric fluid and 0.1 M HCl, paddle 75 rpm) was “less than 40%”, the AUC(0-inf) ([2]; beagle, plasma, iv) was 11.7 ng·h/mL and the AUC(0-t) ([2]; beagle, plasma, iv) was 11.1 ng·h/mL. The Cmax ([2]; beagle, plasma, iv) was 11.8 ng/mL, the Tmax ([2]; beagle, plasma, iv) was 0.0833 h and the half-life ([2]; beagle, plasma, iv) was 0.775 h. It also gave an AUC ([2]; beagle, plasma, po) of 59.7 ng·h/mL, an AUC(0-inf) ([2]; beagle, plasma, po) of 65.3 ng·h/mL and an AUC(0-t) ([2]; beagle, plasma, po) of 59.7 ng·h/mL. For the same compound, the Cmax ([2]; beagle, plasma, po) was 27.3 ng/mL, the Tmax ([2]; beagle, plasma, po) was 1 h and the bioavailability ([2]; beagle, plasma, po) was 3.81%. For the same compound, the half-life ([2]; beagle, plasma, po) was 3.29 h, the “UIR parameter A1, Estimate” value [3] was 0.02 ng/mL and the “UIR parameter Ka, Estimate” value [3] was 2.23 h⁻¹. For the same compound, the “UIR parameter Tlag, Estimate” value [3] was 0.45 h and the “UIR parameter alpha1, Estimate” value [3] was 1.18 h⁻¹.
